{"source": "patent US7691563B2", "about": "“Method for alleviating pain using sphingosine-1-phosphate and related compounds, and assays for identifying such compounds” (Sanofi-Aventis Pharma GmbH, priority 2003, dated 2010)", "key": {"adult rats": {"test_system": "adult rats", "test": "Formalin test after intrathecal application of S1P", "format": "in vivo, rat", "details": "20 μl of 10 μM S1P intrathecal 15 minutes prior to formalin; 20 to 35 minutes after formalin; versus PBS/DMSO", "method": "FIG. 24: Pain behaviour of adult rats in the formalin assay with and without application of S1P over a period of 60 minutes. 20 μl of 10 μM S1P or 20 μl PBS/DMSO were given to adult rats by intrathecal application 15 minutes prior to formalin injection. After formalin injection, flinches were counted in 5 minute intervals over a time-period of 60 minutes. The mean of six animal experiments+SEM is shown.\nTo determine the analgesic effect of S1P, S1P was delivered to the spinal chord by intrathecal application.\nRats were anesthetized with ketamine (60 mg/kg i.p.) and midazolam (0.5-1 mg/kg i.p.). The skin was incised above the vertebral column from vertebrae Th13 up to L3. Muscle tissue around L2-3 was cleared away. The processus spinosus of L3 was removed and a laminectomy was done at L2. Polyethylene catheters (ID 0.28 mm, OD 0.61 mm) were then inserted into the peridural space so that the tip of the catheter reached Th9-10. […]\nWithin 15 min after stopping the infusion the formalin test was performed. […] Flinches were counted in one minute intervals up to 60 min starting right after formalin injection. […]\n20 μl of 10 μM S1P or 20 μl PBS/DMSO were given to adult rats by intrathecal application 15 minutes prior to the formalin injection. Then, flinches were counted in 5 minute intervals over a period of 60 minutes."}, "ERK1/2": {"test_system": "ERK1/2", "test": "ERK1/2 phosphorylation in HeLa cells (Western blot)", "format": "cell-based, human", "details": "HeLa cells incubated with S1P; anti-active ERK and anti-phosphoTyr183 ERK antibodies", "method": "Panel C: Western Blot analysis of HeLa cells treated with 0.5 μM S1P for 10 minutes. Prior incubation with S1P the cells were incubated for 20 minutes with 10 μM U73122, BAPTA-AM or U0126. Cells were harvested in boiling Laemmli buffer and subjected to Western analyses using anti-active ERK1/2 antibody. Anti-Hsp70 antibody was used as loading control."}}, "data": [{"compound": "CCCCCCCCCCCCC/C=C/[C@@H](O)[C@@H](N)COP(=O)(O)O", "note": "[S1P, Sphingosine-1-Phosphate]", "values": [{"measurement": "number of nociceptive responses (flinches), phase 2A", "setting": "adult rats", "value": "significant decrease"}, {"measurement": "ERK1/2 phosphorylation", "setting": "ERK1/2", "value": "detectable"}]}]}
